From patent US8846699B2, “Quinazoline derivatives as a multiplex inhibitor and method for the preparation thereof” (Hanmi Pharm. Co., Ltd., priority 2005, dated 2014)

Columns and labels:
[1] = target: VEGFR2 (KDR) (Homo sapiens (Human), UniProt P35968); experiment: VEGFR2 (KDR) enzyme assay, fluorescence polarization; assay type: biochemical; details: 5 μM ATP, poly(Glu, Tyr) substrate
Summary of the method: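 Autophosphorylation read by fluorescence polarization: VEGFR2 (Proquinase) at 200 ng/10 μl with 5 μM ATP and 10 ng/ml poly(Glu,Tyr) 4:1, in 20 mM HEPES pH 7.4, 5 mM MgCl2, 2 mM MnCl2, 50 μM Na3VO4. Reaction 1 h at room temperature, EDTA stop, then anti-phosphotyrosine antibody/tracer for 30 min in the dark.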

[2] = system: skin cancer cell line, A431; experiment: Inhibitory effect on growth of cancer cell line A431, SRB; assay type: cell-based; details: overexpressed EGFR1 (HER-1)
Summary of the method: (§1)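 Cells were cultured in DMEM with 10% FBS. Compounds were applied at 10 μM with 10-fold serial dilution to 10^−4, DMSO <1%, for 72 h at 37 °C. Cells were then TCA-fixed and stained with 0.4% SRB, and absorbance was read at 570 nm after solubilisation in 10 mM Tris base.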

[3] = system: Human Umbilical Vein Endothelial Cell (HUVEC); experiment: Inhibitory effect on growth of human umbilical vein endothelial cell (HUVEC), MTS; assay type: cell-based; details: 10 ng/ml VEGF, absorbance 490 nm
[4] = system: colon and rectal cancer cell line, SW-620; experiment: Inhibitory effect on growth of cancer cell line SW-620, SRB; assay type: cell-based; details: not having overexpressed EGFR and EGFR2
Summary of the method: as §1

[5] = target: EGFR1 (HER-1) (Homo sapiens (Human), UniProt P00533); experiment: EGFR1 (HER-1) enzyme assay, fluorescence polarization; assay type: biochemical; details: 100 μM ATP, poly(Glu, Tyr) substrate
Chain of EGFR1 (HER-1) (P00533 25-1210): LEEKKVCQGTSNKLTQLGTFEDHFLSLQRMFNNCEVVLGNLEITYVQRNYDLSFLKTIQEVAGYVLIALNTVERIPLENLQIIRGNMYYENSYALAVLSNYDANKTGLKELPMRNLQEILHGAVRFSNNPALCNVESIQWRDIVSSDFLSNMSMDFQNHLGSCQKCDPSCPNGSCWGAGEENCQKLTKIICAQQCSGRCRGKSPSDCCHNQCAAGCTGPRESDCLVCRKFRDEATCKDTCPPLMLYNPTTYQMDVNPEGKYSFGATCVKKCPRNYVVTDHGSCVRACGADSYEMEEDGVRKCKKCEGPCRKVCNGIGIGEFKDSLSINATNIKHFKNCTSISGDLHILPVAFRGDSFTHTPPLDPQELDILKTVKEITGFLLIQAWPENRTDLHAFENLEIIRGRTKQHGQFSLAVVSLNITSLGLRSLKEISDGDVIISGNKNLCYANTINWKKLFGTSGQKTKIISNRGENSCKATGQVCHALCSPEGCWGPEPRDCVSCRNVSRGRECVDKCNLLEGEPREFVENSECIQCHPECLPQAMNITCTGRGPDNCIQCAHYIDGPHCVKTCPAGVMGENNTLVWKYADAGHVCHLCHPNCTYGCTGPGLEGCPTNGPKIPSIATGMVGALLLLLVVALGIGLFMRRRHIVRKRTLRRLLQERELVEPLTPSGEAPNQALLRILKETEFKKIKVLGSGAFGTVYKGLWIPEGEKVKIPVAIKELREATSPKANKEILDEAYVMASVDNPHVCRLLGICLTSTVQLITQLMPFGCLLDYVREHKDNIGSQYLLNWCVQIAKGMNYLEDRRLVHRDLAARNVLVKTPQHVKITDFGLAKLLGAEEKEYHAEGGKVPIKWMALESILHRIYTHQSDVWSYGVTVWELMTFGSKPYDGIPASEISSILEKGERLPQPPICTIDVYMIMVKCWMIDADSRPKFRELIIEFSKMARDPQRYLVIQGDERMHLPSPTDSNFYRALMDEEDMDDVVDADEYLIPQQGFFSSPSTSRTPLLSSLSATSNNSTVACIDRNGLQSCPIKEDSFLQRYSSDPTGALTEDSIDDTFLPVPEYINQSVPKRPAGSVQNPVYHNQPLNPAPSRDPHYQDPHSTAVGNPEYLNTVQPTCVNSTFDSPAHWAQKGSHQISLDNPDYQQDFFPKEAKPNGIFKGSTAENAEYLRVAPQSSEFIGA

[6] = system: breast cancer cell line, SK-Br3; experiment: Inhibitory effect on growth of cancer cell line SK-Br3, SRB; assay type: cell-based; details: overexpressed EGFR2 (HER-2)
Summary of the method: as §1

Chain of VEGFR2 (KDR) (P35968 20-1356): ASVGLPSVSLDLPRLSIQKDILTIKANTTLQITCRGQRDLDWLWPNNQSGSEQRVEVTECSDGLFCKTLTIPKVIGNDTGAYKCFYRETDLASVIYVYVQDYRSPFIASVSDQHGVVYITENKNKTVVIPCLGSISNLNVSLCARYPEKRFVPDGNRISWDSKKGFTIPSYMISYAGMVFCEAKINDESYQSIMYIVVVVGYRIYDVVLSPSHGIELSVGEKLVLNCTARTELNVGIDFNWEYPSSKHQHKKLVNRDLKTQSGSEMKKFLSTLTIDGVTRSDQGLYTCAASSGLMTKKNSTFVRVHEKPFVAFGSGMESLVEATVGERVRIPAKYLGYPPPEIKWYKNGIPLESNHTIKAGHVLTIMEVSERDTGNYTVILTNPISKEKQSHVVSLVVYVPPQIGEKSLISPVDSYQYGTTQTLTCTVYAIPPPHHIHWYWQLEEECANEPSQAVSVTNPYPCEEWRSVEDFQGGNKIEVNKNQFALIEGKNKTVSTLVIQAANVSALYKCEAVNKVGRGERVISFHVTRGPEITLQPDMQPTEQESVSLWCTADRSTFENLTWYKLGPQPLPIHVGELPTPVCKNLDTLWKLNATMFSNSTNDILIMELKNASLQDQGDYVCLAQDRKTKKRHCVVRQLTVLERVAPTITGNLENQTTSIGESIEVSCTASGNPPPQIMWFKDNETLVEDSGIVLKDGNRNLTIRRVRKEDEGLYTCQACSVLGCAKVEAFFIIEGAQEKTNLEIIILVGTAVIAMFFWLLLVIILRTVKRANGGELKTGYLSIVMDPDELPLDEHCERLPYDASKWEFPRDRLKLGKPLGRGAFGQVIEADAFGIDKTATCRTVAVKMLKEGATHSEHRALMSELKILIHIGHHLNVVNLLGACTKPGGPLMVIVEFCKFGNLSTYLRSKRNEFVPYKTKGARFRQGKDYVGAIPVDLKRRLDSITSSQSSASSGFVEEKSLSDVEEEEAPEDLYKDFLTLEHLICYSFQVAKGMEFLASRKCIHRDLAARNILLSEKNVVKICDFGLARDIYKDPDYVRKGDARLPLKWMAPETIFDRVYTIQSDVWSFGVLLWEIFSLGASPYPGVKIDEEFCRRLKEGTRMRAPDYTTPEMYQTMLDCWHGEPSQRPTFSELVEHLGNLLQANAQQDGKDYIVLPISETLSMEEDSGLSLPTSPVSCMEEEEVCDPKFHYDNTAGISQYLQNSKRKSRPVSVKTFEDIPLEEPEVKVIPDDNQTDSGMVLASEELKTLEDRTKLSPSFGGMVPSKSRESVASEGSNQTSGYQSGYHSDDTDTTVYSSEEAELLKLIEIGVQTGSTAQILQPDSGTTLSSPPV

Row | SMILES | IC50 [1] [nM] | IC50 ([2]; Homo sapiens, A-431, 72 h) [nM] | IC50 ([4]; Homo sapiens, 72 h) [nM] | IC50 [5] [nM] | IC50 ([6]; Homo sapiens, SK-BR-3, 72 h) [nM] | IC50 ([3]; Homo sapiens, 96 h) [nM] | IC50 ([2]; 72 hours) [nM] | IC50 ([3]; 96 hours) [nM] | IC50 ([4]; 72 hours) [nM] | IC50 ([6]; 72 hours) [nM]
1 | C=CC(=O)Nc1cc2c(Nc3c(F)cc(Br)cc3F)ncnc2cc1OCC1CCN(C(C)=O)CC1 [Example 8, N-[7-(1-acetyl-piperidin-4-ylmethoxy)-4-(4-bromo-2,6-difluoro-phenylamino)-quinazolin-6-yl]-acrylamide] | 148 | 20 | 2530 | 13 | 149 | 98 |  |  |  | 
2 | C=CC(=O)Nc1cc2c(Nc3ccc(Br)c(Cl)c3F)ncnc2cc1OC[C@H](C)NC(=O)CN(C)C [Example 163, (S)—N-4-(4-bromo-3-chloro-2-fluoro-phenylamino)-7-[2-(2-dimethylamino-acetylamino)-propoxy]-quinazolin-6-yl-acrylamide] | 722 |  |  | 12 |  |  | 18 | 735 | 10000 | 45
3 | C=CC(=O)Nc1cc2c(Nc3ccc(Br)cc3F)ncnc2cc1OCCN [Example 29, N-[7-(2-amino-ethoxy)-4-(4-bromo-2-fluoro-phenylamino)-quinazolin-6-yl]-acrylamide] | 545 | 46 | 10000 | 4 | 145 | 951 |  |  |  | 
4 | C=CC(=O)Nc1cc2c(Nc3ccc(Br)cc3F)ncnc2cc1OCC1CCN(C(=O)C=C)CC1 [Example 5, N-[7-(1-acryloyl-piperidin-4-ylmethoxy)-4-(4-bromo-2-fluoro-phenylamino)-quinazolin-6-yl]-acrylamide] | 203 | 37 | 2350 | 3 | 241 | 34 |  |  |  | 

More lines, in order of falling IC50 [1], values ahead:

Row | IC50 [1] [nM] | IC50 ([2]; Homo sapiens, A-431, 72 h) [nM] | IC50 ([4]; Homo sapiens, 72 h) [nM] | IC50 [5] [nM] | IC50 ([6]; Homo sapiens, SK-BR-3, 72 h) [nM] | SMILES | IC50 ([3]; Homo sapiens, 96 h) [nM] | IC50 ([2]; 72 hours) [nM] | IC50 ([3]; 96 hours) [nM] | IC50 ([4]; 72 hours) [nM] | IC50 ([6]; 72 hours) [nM]
5 | 354 | 6 | 10000 | 9 | 59 | C=CC(=O)Nc1cc2c(Nc3ccc(Br)cc3F)ncnc2cc1OCCNC(=O)CCN(C)C [Example 61, N-{4-(4-bromo-2-fluoro-phenylamino)-7-[2-(3-dimethylamino-propionylamino)-ethoxy]-quinazolin-6-yl}-acrylamide] | 384 |  |  |  | 
6 | 347 | 17 | 2500 | 2 | 157 | C=CC(=O)Nc1cc2c(Nc3ccc(Br)cc3F)ncnc2cc1OCCCNC(=O)CN(C)C [Example 12, N-{4-(4-bromo-2-fluoro-phenylamino)-7-[3-(2-dimethylamino-acetylamino)-propoxy]-quinazolin-6-yl}-acrylamide] | 156 |  |  |  | 
7 | 172 | 18 | 9590 | 13 | 62 | C=CC(=O)Nc1cc2c(Nc3cc(Cl)c(Br)cc3F)ncnc2cc1OCCNC(=O)CC [Example 134, N-[4-(4-bromo-5-chloro-2-fluoro-phenylamino)-7-(2-propionylamino-ethoxy)-quinazolin-6-yl]-acrylamide] | 1060 |  |  |  | 
8 | 153 | 7 | 10000 | 5 | 22 | C=CC(=O)Nc1cc2c(Nc3cc(Cl)c(Cl)cc3F)ncnc2cc1OCCNC(C)=O [Example 121, N-[7-(2-acetylamino-ethoxy)-4-(4,5-dichloro-2-fluoro-phenylamino)-quinazolin-6-yl]-acrylamide] | 383 |  |  |  | 
